# Assay results as given in ChEMBL document CHEMBL5325410, “Ras superfamily GTPase activating proteins in cancer: Potential therapeutic targets?” (Eur J Med Chem, 2023).
# pEC50: −log10 of the molar value.
# Columns and labels:
# [1] = molecular target: T1, ADP-ribosylation factor GTPase-activating protein 1 (Homo sapiens, UniProt Q8N6T3); test: Inhibition of ARFGAP1 (unknown origin) at 10 uM relative to control
# MDA-MB-231 = test: Inhibition of cell migration in human MDA-MB-231 cells at 2.5 uM measured after 12 hrs by transwell migration assay; format: functional
# [2] = molecular target: T1, ADP-ribosylation factor GTPase-activating protein 1; test: Inhibition of ARFGAP1 (unknown origin)
# T1 sequence (Q8N6T3 whole entry): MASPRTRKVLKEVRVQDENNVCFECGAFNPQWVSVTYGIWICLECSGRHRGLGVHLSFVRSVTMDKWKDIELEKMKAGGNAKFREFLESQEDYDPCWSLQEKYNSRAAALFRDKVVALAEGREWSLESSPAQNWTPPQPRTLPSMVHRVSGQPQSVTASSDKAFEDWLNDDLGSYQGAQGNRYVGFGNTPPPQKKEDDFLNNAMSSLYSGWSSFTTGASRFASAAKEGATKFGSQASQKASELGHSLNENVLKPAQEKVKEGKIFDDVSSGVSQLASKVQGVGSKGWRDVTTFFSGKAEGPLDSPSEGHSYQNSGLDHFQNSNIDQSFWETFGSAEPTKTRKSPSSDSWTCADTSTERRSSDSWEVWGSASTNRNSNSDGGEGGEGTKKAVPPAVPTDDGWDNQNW
inhibition [1] [%],pEC50 [2],Structure (SMILES),inhibition at 2.5 µM (MDA-MB-231) [%]
67,–,FC(F)(F)c1cccc(Oc2nc(NCCc3cccc4ccccc34)c3ncn(Cc4ccc(-c5ccccc5)cc4)c3n2)c1,–
84,6.30,OC[C@H](Cc1ccccc1)Nc1nc(Oc2ccc3c(c2)CCC3)nc2c1ncn2Cc1ccc(-c2ccccc2)cc1,80
